This is an account of results in ChEMBL document CHEMBL5576054, “Lead compound profiling for small molecule inhibitors of the REV1-CT/RIR Translesion synthesis Protein-Protein interaction” (Bioorg Med Chem, 2024).

Converted amounts (≈) assume the structure as drawn. The source made the active and inactive calls. No cut-off for these calls is given here. Bounds are passed on as bounds.

As a reminder, the IC50 is the concentration that inhibits the measured activity by half. Low values mean inhibition by little substance, high ones a need for much substance. Usually solubility stands for how much of the substance goes into solution per volume.

Data set [1] can be described thus: Disruption of C-terminal REV-1/FAM-tagged Pol kappa RIR (unknown origin) interaction incubated for 1 hr by FP assay. The arrangement: species or system Homo sapiens.
Data set [2] is described as follows: Solubility of compound in PBS at pH 4. It counts as physicochemical. The following applies: buffer.
The nature of data set [3]: Solubility of compound in PBS at pH 7.4. Format: physicochemical.
Data set [4] is described as follows: Metabolic stability in human liver microsomes assessed as half life at 1 uM incubated upto 60 mins by LC-MS/MS analysis. Format: ADME, Microsome. The following applies: 1 h.
Data set [5] in a line: Metabolic stability in human liver microsomes assessed as intrinsic clearance at 1 uM incubated upto 60 mins by LC-MS/MS analysis. It counts as ADME, Microsome. Conditions: 1 h. (Liver microsomes are a subcellular fraction often used to study metabolism.)
Data set [6] has as its system A549. As to the kind of experiment: Inhibition of cologenic survival in human A549 cells incubated for 8 to 10 days by crystal violet staining based analysis. It counts as functional, cell-based. Conditions: time 8-10 day.

In data set [1], `C=CCOc1ccccc1C(=O)Nc1sc(CCC)cc1C(=O)OCC` came in with a half-maximal inhibitory concentration (IC50) of 14.9 µM.

In data set [1], `CC(=O)N1CCC(C(=O)NCCc2cccs2)CC1` gave a concentration for half-maximal inhibition (IC50) greater than 100 µM.

Take `CCCc1cc(C(=O)OCC)c(NC(=O)c2ccccc2)s1`: the IC50 in data set [1] came out at 4.4 µM.

`Cc1ccc(C(=O)N2CCN(c3ccccc3)CC2)cc1S(=O)(=O)N1CCOCC1`: the solubility in data set [2] amounted to 13.9 µM (≈ 5.97 µg/mL); in data set [3], 14.1 µM (≈ 6.06 µg/mL). For the same compound, the t1/2 in data set [4] is listed as 6.6 min. In data set [5], the “intrinsic clearance (CLint)” value came to 210 µL/min/mg.

Take `C=CCOc1cccc(C(=O)Nc2sc(CCC)cc2C(=O)OCC)c1`: inhibition in data set [1] was half-maximal at 66.2 µM (IC50).

In data set [1], `CCCc1cc(C(=O)OC)c(NC(=O)c2ccccc2)s1` came in with an IC50 of 4.7 µM.

As to `CCCc1cc(C(=O)OCC)c(NC(=O)c2ccc(O)cc2)s1`, the IC50 in data set [1] was 9.3 µM.

`Nc1ccc(/N=N/c2ccc3ccccc3c2)c(N)c1`: in data set [6], the inhibition result is “Active”.

In the case of `CC(=O)C(C)n1c(CN2CCN(c3cccc(Cl)c3)CC2)nc2c1c(=O)n(C)c(=O)n2C` (centres undefined), the solubility worked out at 45.5 µM (≈ 20.9 µg/mL) in data set [2] and 177 µM (≈ 81.2 µg/mL) in data set [3]. The t1/2 in data set [4] came to 3.4 min. Besides, the “intrinsic clearance (CLint)” value in data set [5] was found to be 202 µL/min/mg.

Consider `CCCc1cc(C(=O)OCC)c(NC(=O)C2CCCN(C(=O)OC(C)(C)C)C2)s1` (centres undefined), for which, in data set [1], inhibition was half-maximal at 2.5 µM (IC50).

With `CCCc1cc(C(=O)OCC)c(NC(=O)C2CCN(C(C)=O)CC2)s1`, the midpoint of inhibition in data set [1], the IC50, lay at 2.9 µM.

In data set [1], `COC(=O)c1ccsc1NC(=O)C1CCN(C(C)=O)CC1` registered an IC50 greater than 100 µM.

Turning to `C=CCOc1ccc(C(=O)Nc2sc(CCC)cc2C(=O)OCC)cc1`, in data set [1], the IC50 was 25.3 µM.

`CCCc1cc(C(=O)OCC)c(NC(=O)C2CCN(C(=O)OC(C)(C)C)CC2)s1` registered an IC50 in data set [1] of 2.3 µM.

`CCCc1cc(C(=O)OCC)c(NC(=O)c2cc(O)cc(O)c2)s1`: the half-inhibitory concentration (IC50) in data set [1] is greater than 100 µM.

On to `CCCc1cc(C(=O)OCC)c(NC(=O)c2cccc(O)c2)s1`, for which the IC50 in data set [1] turned out to be 2.5 µM.

In data set [1], `CCCc1cc(C(=O)OCC)c(NC(=O)C2CCCNC2)s1` (centres undefined) returned an IC50 of 1.2 µM.

On to `CCCCc1ccc(-n2nnc(C(=O)N(C)C3CCS(=O)(=O)C3)c2C)cc1` (centres undefined), for which the solubility worked out at 11.7 µM (≈ 4.57 µg/mL) in data set [2] and 10 µM (≈ 3.91 µg/mL) in data set [3]. In addition, the t1/2 in data set [4] worked out at 49.9 min. For the same compound, the “intrinsic clearance (CLint)” value in data set [5] came out at 27.8 µL/min/mg.

In data set [1], `CC(=O)N1CCC(C(=O)NCc2cccs2)CC1` gave a concentration for half-maximal inhibition (IC50) of 16.4 µM.

Consider `CCCc1cc(C(=O)OCC)c(NC(=O)C2CCNCC2)s1`, for which the IC50 in data set [1] is 3.8 µM.

As for `Nc1ccc(/N=N/c2ccc3ccccc3c2)c(N)n1`, the inhibition entry in data set [6] was “Active”.

In the case of `Cc1ccc(/N=N/c2ccc(N)nc2N)cc1C`, the inhibition entry in data set [6] was “Active”.

`CCOC(=O)c1c(NC(=O)C2CCN(C(C)=O)CC2)sc2c1CCCC2`: it took 5.8 µM to reach half-maximal inhibition in data set [1] (IC50).

With `CCCc1cc(C(=O)OCC)c(NC(=O)c2ccccc2O)s1`, it took 16.7 µM to reach half-maximal inhibition in data set [1] (IC50).

In data set [1], `C=CCOc1cc(OCC=C)cc(C(=O)Nc2sc(CCC)cc2C(=O)OCC)c1` had an IC50 of 49.7 µM.
